Measured values from ChEMBL document CHEMBL2074116, “Functional analysis of rat renal organic anion transporter OAT-K1: bidirectional methotrexate transport in apical membrane” (FEBS Lett, 1999).

T1: Solute carrier organic anion transporter family member 1A3 (Rattus norvegicus, UniProt P70502)
T1 sequence (P70502 whole entry): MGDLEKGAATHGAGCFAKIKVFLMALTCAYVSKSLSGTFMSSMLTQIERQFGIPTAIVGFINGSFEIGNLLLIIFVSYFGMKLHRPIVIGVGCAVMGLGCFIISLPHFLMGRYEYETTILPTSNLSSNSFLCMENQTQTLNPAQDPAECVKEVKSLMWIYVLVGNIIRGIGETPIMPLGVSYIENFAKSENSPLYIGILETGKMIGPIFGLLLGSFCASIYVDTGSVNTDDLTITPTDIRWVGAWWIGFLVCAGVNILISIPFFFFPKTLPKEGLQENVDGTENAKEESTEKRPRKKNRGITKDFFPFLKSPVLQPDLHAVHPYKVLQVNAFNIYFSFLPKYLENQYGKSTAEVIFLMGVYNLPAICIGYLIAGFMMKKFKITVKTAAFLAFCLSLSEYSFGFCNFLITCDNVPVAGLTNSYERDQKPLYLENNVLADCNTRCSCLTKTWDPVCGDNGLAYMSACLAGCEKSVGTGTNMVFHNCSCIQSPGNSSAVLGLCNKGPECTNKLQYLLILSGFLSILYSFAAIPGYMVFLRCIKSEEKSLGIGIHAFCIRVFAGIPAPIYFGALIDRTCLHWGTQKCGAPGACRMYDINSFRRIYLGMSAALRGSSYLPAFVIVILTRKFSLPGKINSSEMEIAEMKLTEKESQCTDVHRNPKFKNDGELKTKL

B1: Solute carrier organic anion transporter family member 1A3 (Rattus norvegicus) (protein)
chain: T1 sequence (P70502 whole entry)

How the values were obtained:
Assay type in all cases: functional, cell-based
[1] = target: T1, Solute carrier organic anion transporter family member 1A3; assay: TP_TRANSPORTER: inhibition of MTX uptake (MTX: 0.01 uM, PAH: 100 uM) in OAT-K1-expressing MDCK cells; conditions: dog
[2] = target: T1, Solute carrier organic anion transporter family member 1A3; assay: TP_TRANSPORTER: uptake in Xenopus laevis oocytes; conditions: oocyte
[3] = substrate: CN(Cc1cnc2nc(N)nc(N)c2n1)c1ccc(C(=O)N[C@@H](CCC(=O)O)C(=O)O)cc1; assay: TP_TRANSPORTER: uptake in OAT-K1-expressing MDCK cells

Molecule | Activity [1] | Activity [2] | Km [3]
Nc1ccc(C(=O)NCC(=O)O)cc1 [AMINOHIPPURIC ACID] | inhibitor [(at a rough estimate) 55 % of control] | is not a substrate [-] | –
B1 | – | – | 2.1 µM
